According to paper PMC3328449, “Inhibition of Diacylglycerol–Sensitive TRPC Channels by Synthetic and Natural Steroids” (PLoS ONE, 2012):
Values joined by “and” are separate entries in the source; they are usually repeats but may differ in a detail not shown here. Identical values can stand only once.

Biological target: T1, hTRPC6 (Homo sapiens, UniProt Q9Y210)
T1 construct: expressed in transfected cells
T1 sequence (Q9Y210 1-931): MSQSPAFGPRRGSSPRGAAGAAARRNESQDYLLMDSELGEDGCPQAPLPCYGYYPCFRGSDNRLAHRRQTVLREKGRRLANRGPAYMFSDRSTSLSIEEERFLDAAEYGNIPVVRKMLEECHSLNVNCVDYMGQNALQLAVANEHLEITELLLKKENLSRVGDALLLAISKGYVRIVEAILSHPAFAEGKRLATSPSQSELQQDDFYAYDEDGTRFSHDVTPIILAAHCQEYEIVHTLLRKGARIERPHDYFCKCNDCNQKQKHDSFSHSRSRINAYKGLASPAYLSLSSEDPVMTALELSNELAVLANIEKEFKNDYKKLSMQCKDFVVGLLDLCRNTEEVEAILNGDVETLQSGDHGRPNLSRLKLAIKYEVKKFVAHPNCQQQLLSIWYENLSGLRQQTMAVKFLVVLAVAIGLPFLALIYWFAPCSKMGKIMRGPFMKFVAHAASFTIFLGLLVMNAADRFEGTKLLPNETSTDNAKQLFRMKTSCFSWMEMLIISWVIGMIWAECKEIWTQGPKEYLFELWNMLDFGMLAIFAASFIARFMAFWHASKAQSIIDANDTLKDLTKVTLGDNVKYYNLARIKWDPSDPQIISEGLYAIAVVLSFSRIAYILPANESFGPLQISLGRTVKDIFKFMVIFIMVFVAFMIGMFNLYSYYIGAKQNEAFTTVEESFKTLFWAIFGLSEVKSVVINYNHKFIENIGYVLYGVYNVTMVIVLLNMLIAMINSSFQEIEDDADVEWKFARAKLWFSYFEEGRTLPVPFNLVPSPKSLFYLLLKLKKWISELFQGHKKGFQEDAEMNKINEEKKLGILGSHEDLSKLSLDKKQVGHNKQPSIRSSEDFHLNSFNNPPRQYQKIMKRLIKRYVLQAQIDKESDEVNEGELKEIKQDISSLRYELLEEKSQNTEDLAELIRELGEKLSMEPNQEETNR
Test: Whole-cell patch clamp, AlF4- evoked TRPC6 currents
Assay type: cell-based
Protocol: Cells were grown at 37°C in a humidified atmosphere (5% or 7% CO2) under standard cell culture conditions. Stable human embryonic kidney (HEK) cell lines expressing recombinant mTRPC4ß (GenBank accession number AAC05178); mTRPC5 (GenBank accession number NM_009428) or hTRPC6 (GenBank accession number AF080394) under the control of a tetracycline-inducible promoter were generated using the Flp-In T-Rex (FITR) system (Invitrogen, Karlsruhe, Germany). TRPC4/5/6 HEK-FITR cells were maintained in Dulbecco's modified eagle medium (DMEM, with glutaMAX I, 4.5 g/l glucose and […] sodium pyruvate) supplemented with 10% (v/v) fetal bovine serum (Biochrom, Berlin, Germany), 1 mM glutamine, 1 mM MEM sodium pyruvate, 40 µg/ml hygromycin (50 µg/ml for mTRPC5 HEK-FITR cells), and 15 µg/ml blasticidine HCl. Channel expression was induced by supplementing the growth medium for 18–24 h with 1 µg/ml doxycycline.
The whole-cell patch clamp technique was employed to measure ion currents from single cells. […]
Cells grown on poly-L-lysine-coated coverslips were continuously superfused with extracellular solution and substances were applied using an ALA BPS-8 perfusion system (ALA Scientific Instruments, Westbury, USA). […] Cells were held at −70 mV, and current-voltage (I–V) relationships were routinely measured every 2 or 3 s by applying voltage ramps (180 ms) from −100 mV to +80 mV. […]
For statistical analysis, analysis of variance was performed with Origin 6.0 software (Microcal Software Inc., Northampton, USA). […] IC50 were calculated with SigmaPlot (Systat software, San Jose, USA) using the sigmoidal Hill-model: f = 100 (C^n/(IC50 ^n+C^n)); where f is the inhibition, C is the applied drug concentration and n is the Hill coefficient. The half maximal effective concentration (EC50) of norgestimate-induced vasorelaxation was calculated analogously with R = y0+y1C^n/(EC50 ^n+C^n); where R is relaxation, yo and y1 are constants, C is the applied drug concentration and n is the Hill coefficient. Averaged data is expressed as means ± SEM.

With `C#C[C@]1(OC(C)=O)CC[C@H]2[C@@H]3CCC4=CC(=NO)CC[C@@H]4[C@H]3CC[C@@]21CC` (mixture of isomers) [norgestimate] the “Inhibition of TRPC6 currents” value (10 µM, whole-cell patch clamp, AlF4- infusion) was “almost completely inhibited”, the “Hill slope, TRPC6 current inhibition” value (fit to dose-response equation) was 1.19 and the IC50 (whole-cell patch clamp, AlF4- infusion, read-out: IC50, TRPC6 current inhibition) was 3.06 µM and ~3 µM.
